From patent US20060094017A1, “Immunogens for hiv vaccine” (priority 2003, published 2006)

Tests used:
[1] = test system: Mab 2G12; assay: BIACore (SPR) binding of Mab 2G12 to mimotopes displayed on phage captured by anti-M13 antibody; set-up: species or system human; settings: round three phage-displayed mimotope (pIII) captured via anti-M13 on RAMFc CM5 chip; 25 μl Mab 2G12 at 100 μg/ml
Protocol: BIACore confirmation of mimotope binding to Mab 2G12 was determined for four of the identified peptide sequences disclosed in the present application. For the first assay, a batch of individually selected phage was prepared from the transduced E. coli cells described in Example 2. The phage were concentrated by PEG precipitation to be used in the assay. Initially, a murine anti-phage pVIII monoclonal antibody (anti-M13) is captured by a BIACore CM5 chip that is coated with a standard rabbit anti-mouse (Fc) antibody (RAMFc). The anti-M13 antibody captures the chimeric phage selected from the panning procedure described in Example 2. Mab 2G12 is then flowed over the chip in order to describe and confirm binding of the antibody to the captured chimeric phage pIII.
Specifically, RAMFc was first immobilized on the gold surface of the BIACore CM5 chip (Uppsala, Sweden) containing dextran by amine coupling. Twenty-five microliters of anti-M13 antibody (Amersham Pharmacia Biotech, Piscataway, N.J.), at 1 mg/ml, was injected into the flowcell containing the chip at a flow rate of […] and captured by the immobilized RAMFc. The captured anti-M13 was measured in resonance units (RU). After completing the initial control tests of the flowcell, the chip was regenerated by injecting 10 μl of 20 mM HCL, 3 times, into the flowcell. To determine whether Mab 2G12 can detect the mimotopes isolated in the panning procedure described herein, 25 μl of anti-M13 at 1 mg/ml was first injected into the flowcell. Fifty microliters of the round three phage preparation of the mimotope sequence identified by SEQ ID NO:3, WKIPDHGIVVFSWFP, at >1×10^10 phage particles per ml, was injected into the flowcell. This was followed by 25 μl of Mab 2G12 at 100 μg/ml. The amount of Mab 2G12 captured on the chip was subsequently measured in RUs. This procedure was repeated for the following round three mimotopes: RSGHKVWVVSTKESS (SEQ ID NO:1), KCCFAESSRSGTGRY (SEQ ID NO:2) and VLRLMECHFQCVPSL (SEQ ID NO:4). […] Of the four mimotopes tested by this procedure, RSGHKVWVVSTKESS (SEQ ID NO:1) bound Mab 2G12 the tightest at 312 RUs. In comparison, KCCFAESSRSGTGRY (SEQ ID NO:2) bound at 120 RUs, WKIPDHGIVVFSWFP (SEQ ID NO:3) bound at 24 RUs, and VLRLMECHFQCVPSL (SEQ ID NO:4) bound at 17 RUs.

[2] = test system: Mab 2G12; assay: BIACore (SPR) binding of Mab 2G12 to biotinylated synthetic mimotope peptides on streptavidin chip; set-up: species or system human; settings: synthetic biotinylated mimotope peptide (500 μg/ml) on streptavidin chip; 100 μl Mab 2G12 at 0.25 μg/μl, 5 μl/min
Protocol: Surface plasmon resonance was also used to confirm the binding of synthetic mimotope peptides identified from the panning procedure described in Example 2 to Mab 2G12. In this assay, a solution of biotinylated mimotope peptide is injected into a flowcell containing a BIACore chip coated with streptavidin. The biotin-streptavidin interaction immobilizes the synthetic mimotope peptide on the chip surface. Mab 2G12 is then injected into the flowcell to determine if the antibody recognizes and is captured by the bound mimotope. Specifically, the streptavidin BIACore chip was warmed to room temperature for 30 minutes. The chip was then docked and primed 2× with HBS-EP (0.01M HEPES, pH 7.4, 0.15M NaCl, 3 mM EDTA, 0.005% Surfactant P20) and conditioned for three cycles with 1M NaCl/50 mM NaOH. Each synthesized, biotinylated mimotope peptide was diluted 1:2 in HBS (0.01M HEPES, pH 7.4) to a final concentration of 500 μg/ml. Seventy-five microliters of each mimotope peptide was then injected into the flowcell at a flow rate of 5 μl/min. Mab 2G12 was resuspended in sterile water to a concentration of 0.25 μg/μl, and 100 μl of the antibody was injected into the flowcell containing the captured synthetic peptide at a flow rate of 5 μl/min. The captured Mab2G12 was measure in RUs. Of the mimotopes tested by this procedure, the synthetic peptide represented by SEQ ID NO:3, WKIPDHGIVVFSWFP, bound Mab 2G12 the tightest at 1193 RUs. In comparison, RSGHKVWVVSTKESS (SEQ ID NO:1) bound at 117 RUs, VLRLMECHFQCVPSL (SEQ ID NO:4) bound at 133 RUs, and TLKSLPYRAVLGAQA (SEQ ID NO:5) bound at 37 RUs. […] Thus, the mimotope represented by SEQ ID NO:2 binds to Mab 2G12 more efficiently as a multivalent structure (e.g., when within the pIII on the tip of the filamentous phage particle).

Sequence	amount of Mab 2G12 captured on the chip [1]	captured Mab 2G12 [2]
KCCFAESSRSGTGRY (Synthetic peptide mimotope) [SEQ ID NO:2]	120 RUs	no binding
RSGHKVWVVSTKESS (Synthetic peptide mimotope) [SEQ ID NO:1]	312 RUs	117 RUs
TLKSLPYRAVLGAQA (Synthetic peptide mimotope) [SEQ ID NO:5]		37 RUs
VLRLMECHFQCVPSL (Synthetic peptide mimotope) [SEQ ID NO:4]	17 RUs	133 RUs
WKIPDHGIVVFSWFP (Synthetic peptide mimotope) [SEQ ID NO:3]	24 RUs	1193 RUs
